# In the NIST ThermoML archive (doi:10.1021/je700177n):
# ± gives the expanded uncertainty stated by the source.
# Assays:
# [1] = refractive index (Na D-line) (dimensionless); wn = mass fraction of the nth substance listed; details: 333.15 K, 101 kPa, Liquid
# [2] = wn = mass fraction of the nth substance listed; details: 333.15 K, 101 kPa, Liquid
smiles,measurement,setting,value
O [water] + O=C[C@H](O)[C@@H](O)[C@H](O)[C@H](O)CO,refractive index,[1]; w2 = 0,1.326 ± 0.005
O=C[C@H](O)[C@@H](O)[C@H](O)[C@H](O)CO [D-glucose] + O,refractive index,[1]; w1 = 0.1,1.341 ± 0.005
same,refractive index,[1]; w1 = 0.2,1.359 ± 0.005
same,refractive index,[1]; w1 = 0.3,1.375 ± 0.005
same,refractive index,[1]; w1 = 0.4,1.395 ± 0.005
same,refractive index,[1]; w1 = 0.5,1.416 ± 0.005
same,refractive index,[1]; w1 = 0.6,1.432 ± 0.005
same,refractive index,[1]; w1 = 0.7,1.455 ± 0.005
same,refractive index,[1]; w1 = 0.8,1.477 ± 0.005
same,refractive index,[1]; w1 = 0.9,1.506 ± 0.005
same,mass density,[2]; w1 = 0.1,1022 ± 2 kg/m3
same,viscosity,[2]; w1 = 0.1,29.4 mPa·s
same,mass density,[2]; w1 = 0.2,1063 ± 3 kg/m3
same,viscosity,[2]; w1 = 0.2,34.8 mPa·s
same,mass density,[2]; w1 = 0.3,1109 ± 3 kg/m3
same,viscosity,[2]; w1 = 0.3,43.8 mPa·s
same,mass density,[2]; w1 = 0.4,1157 ± 4 kg/m3
same,viscosity,[2]; w1 = 0.4,63 mPa·s
same,mass density,[2]; w1 = 0.5,1207 ± 5 kg/m3
same,viscosity,[2]; w1 = 0.5,107.1 mPa·s
same,mass density,[2]; w1 = 0.6,1268 ± 6 kg/m3
same,viscosity,[2]; w1 = 0.6,264.6 mPa·s
same,mass density,[2]; w1 = 0.7,1334 ± 7 kg/m3
same,viscosity,[2]; w1 = 0.7,409.2 mPa·s
same,mass density,[2]; w1 = 0.8,1376 ± 8 kg/m3
same,viscosity,[2]; w1 = 0.8,430.8 mPa·s
